Results taken from patent US11485762B2, “Compositions and methods for inhibition of L-plastin activity in osteoclasts to reduce bone loss” (University of Maryland, Baltimore, priority 2017, dated 2022).

Assays:
[1] = tested on: endogenous LPL; assay: Phosphorylation of endogenous (cellular) LPL in osteoclasts (LPL immunoprecipitation, p-Serine immunoblot); format: cell-based, mouse; details: sNT-LPL peptides, 3-4 hours, bone particles and TNF-α
Description: Bone particles (60-80 μm in size) were prepared as described previously (Ma et at, 2010, J. Biol. Chem., 285: 29911-29924). After flushing the marrow cells for osteoclast differentiation as described above, long bones of mice (free of cells inside and muscles outside) were washed extensively with PBS and kept in ethanol until use. Long bones were air-dried in the hood and homogenized by a mini blender. Bone particles were sieved and used for experiments. Multinucleated osteoclasts were seen from day four onward. At this time cultures were added with bone particles (100 μg/ml media) for 3-4 hours or 12-14 hours in the presence of TNF-α (20 ng/ml). Some cultures were treated with 3-5 μg/ml TNFR1 antibody. Osteoclasts were preincubated with the TNFR1 antibody for 60-90 minutes before the addition of TNF-α to enhance the blocking effect. Osteoclasts incubated with bone particles for 3-4 or 12-14 hours in the presence of TNF-α were used for lysate preparations.
The vector pTAT-HA has an N-terminal 6-histidine leader (Nagahara et al., 1998, Nature Medicine, 4:1449-1452). […] For transduction with TAT-fused peptides (100-150 nM), osteoclasts were first kept in serum-free α-MEM for two hours. Afterward, TAT proteins of interest, bone particles, and TNF-α were added to cells in serum-free α-MEM Lysates were made from these cells for immunoprecipitation and immunoblotting analyses. Osteoclasts plated on dentine slices in the presence of TAT-proteins of interest and TNF-α for 3-6 hours or 12-14 hours were used for immunostaining or actin staining analyses. Osteoclast cultures treated only with TNF-α were used as controls.
Following various treatments, osteoclasts were washed three-times with cold PBS and lysed in a radioimmune precipitation buffer (RIPA; 10 mM Tris-HCl, pH 7.2, 150 mM NaCl, 1% deoxycholate, 1% Triton X-100, 0.1% SDS, 1% aprotinin, 2 mM PMSF, […], and 1% aprotinin). Cells were rocked on ice for 15 minutes and scraped off with a cell scraper. Cell lysates were centrifuged at 15,000 rpm for 5 minutes at 4° C., and the supernatant was saved. Protein contents were measured using Bio-Rad protein assay reagent. Equal amounts of lysate proteins (100-150 μg) were used for immunoprecipitations. Immunoprecipitations and Western blotting were done as described previously (Chellaiah et al., 1998, J. Biol. Chem., 273: 11908-11916; Chellaiah et al., 1996, Mol. Biol. Cell, 7: 743-753).
After cells were kept in the serum-free α-MEM medium for two hours, LPL peptides of interest were added to a final concentration of 100-150 nM to cells in serum-free media (Chellaiah et al, 2000, J. Biol. Chem., 275: 11993-12002). Osteoclasts transduced with peptides of interest and added with bone particles in the presence of TNF-α for 3-4 hours or 12-14 hours were used for lysate preparations. Cells plated on coverslips and treated with peptides were used for actin staining to detect podosomes. After transduction for 30 min., osteoclasts were re-plated on dentine slices with respective LPL peptide and TNF-α for 3-6 hours or 12-14 hours. These cells were used for Actin staining with rhodamine-phalloidin or immunostaining analyses (Chellaiah et al., 2000, J. Biol. Chem., 275: 11993-12002; Chellaiah et al., 2000, J. Cell. Biol., 148: 665-678; Chellaiah et al., 2003, J Biol Chem 278: 29086-29097).
Following various treatments, osteoclasts were washed three times with cold PBS and lysed in a Triton-containing lysis buffer as described (Chellaiah et al., 1996, Mol. Biol. Cell, 7: 743-753). Cells were rocked on ice for 15 minutes, and scraped off with a cell scraper. Cell lysates were centrifuged at 15,000 rpm for 5 minutes, at 4° C., and the supernatant was saved. Protein contents were measured using Bio-Rad protein assay reagent. Osteoclast cultures were also subjected to a trypan blue dye (Sigma T8154) exclusion test to determine the viability of osteoclasts after various treatments. […]

[2] = tested on: osteoclasts; assay: F-actin content by rhodamine phalloidin binding; format: cell-based, mouse; details: sNT-LPL peptides; compared with P2, P5, and P6
Description: For the measurement of F-actin, osteoclasts transduced with TAT-LPL peptides of interest for 15 to 30 minutes were re-plated on dentine slices for 3 to 4 hours or 10-12 hours, respectively, in the presence of indicated TAT-fused peptides of interest and TNF-α. For each treatment four to six wells in 24 well, culture dishes were used. Cells were fixed and rhodamine phalloidin binding to F-actin was done as described (Chellaiah et al., 2000, J. Cell Biol., 148: 665-678; Chellaiah et al., 2000, J. Biol. Chem., 275: 11993-12002: Chellaiah et at, 2007, J. Biol. Chem., 282: 10104-10116),
Osteoclasts were transduced with LPL and control peptides. For each treatment four to six wells in 24 well culture dishes were used. Cells were fixed and rhodamine phalloidin binding to F-actin was done as described (Chellaiah et al., 1998, J. Biol. Chem., 273: 11908-11916; Chellaiah et al., 1996, Mol. Biol. Cell, 7: 743-753).

Row | Sequence | inhibitory effect on the phosphorylation of cellular LPL [1] | F-actin level [2]
1 | MARGAVSDEE [Peptide P3, TAT-fused sNT-LPL peptide, Ser-5 substituted with Ala (A5S7)] | varied inhibitory effects | decreased
2 | MARGSVADEE [Peptide P4, TAT-fused sNT-LPL peptide, Ser-7 substituted with Ala (S5A7)] | varied inhibitory effects | decreased
